Source: patent US4048333A (priority 1971, dated 1977)

Assays:
coxsackievirus B1 = format: cell-based, coxsackievirus B1 (FL cells)
poliovirus 1 [1] = format: cell-based, poliovirus 1 (FL cells); details: maximum subtoxic concentration; for Results from one-step virus growth cycle experiments, PFU/ml: control 1.2×10^9; for Results from one-step virus growth cycle experiments, % of inhibition: virus yield vs control
echovirus 19 = assay: one-step virus growth cycle experiments, echovirus 19; format: cell-based, echovirus 19 (FL cells); details: maximum subtoxic concentration; for Results from the one-step virus growth cycle experiments, % of inhibition: virus yield vs control; for Results from the one-step virus growth cycle experiments, PFU/ml: control 2.6×10^9
pregnant female rats = assay: teratogenic effect in pregnant female rats; format: in vivo; details: intraperitoneal, daily doses of 100 mg/kg
rats = assay: subacute toxicity for rats; format: in vivo; details: intraperitoneal, 200 mg/kg daily for 30 days
[2] = acute toxicity for rats (LD50, Pershin method); details: rat, in vivo, ip, intraperitoneal
[3] = tested on: coxsackievirus B1, B3, A6 and A7; assay: animal or person; format: in vivo, newborn mice; details: for ED50: Enterovirus B, B1, in Mus musculus, sc, read-out: ED50 dose; for antiviral activity on experimental Coxsackie infections (in words): mouse, in vivo; for retardation of the course of the infection: newborn mice, 3-10 LD50, subcutaneous once daily
[4] = acute toxicity for mice (LD50, Pershin method); details: mouse, in vivo; for LD50: mice, Pershin method
FMD virus = tested on: FMD virus; parameters: species or system guinea pigs; details: guinea pig, in vivo
FMD virus type C = format: cell-based, FMD virus type C (calf kidney primary cultures)
[5] = acute toxicity / selectivity index, species not stated; details: in vivo; species and route not given
FMD = tested on: FMD; parameters: species or system newborn mice; details: mouse, in vivo
poliovirus 1 [6] = format: cell-based, poliovirus 1 (FL cells); details: FL cells, 48 hour incubation

Oc1cccc(NC(=S)Nc2ccccc2)c1 [Example 13]
Results from the one-step virus growth cycle experiments, PFU/ml (coxsackievirus B1): ≤ 1×10^6 PFU/ml

S=C(Nc1ccccc1)Nc1cnc2ccccc2c1 [Example 1]
Results from one-step virus growth cycle experiments, PFU/ml (poliovirus 1 [1]): 3.3×10^8 PFU/ml
Results from one-step virus growth cycle experiments, % of inhibition (poliovirus 1 [1]): 67.00%

O=[N+]([O-])c1ccc(O)c(NC(=S)Nc2ccccc2)c1 [Example 15]
Results from the one-step virus growth cycle experiments, % of inhibition (coxsackievirus B1): 93.87%
Results from the one-step virus growth cycle experiments, PFU/ml (coxsackievirus B1): 4.6×10^7 PFU/ml

O=C(O)c1ccccc1NC(=S)Nc1ccccc1 [N-phenyl-N'-2-carboxyphenylthiourea]
Results from the one-step virus growth cycle experiments, % of inhibition (echovirus 19): above 99%
Results from one-step virus growth cycle experiments, % of inhibition (poliovirus 1 [1]): 95-99%

O=C(O)c1ccc(NC(=S)Nc2ccccc2)cc1O [Example 4, N-phenyl-N'-4-carboxy-5-hydroxyphenylthiourea]
teratogenic effect (pregnant female rats): No teratogenic effect
Results from the one-step virus growth cycle experiments, % of inhibition (echovirus 19): above 99%
subacute toxicity: changes in general state, behaviour, weight, blood pattern (rats): no changes in the general state and behaviour of the animals, or in their weight, the blood pattern, etc. were observed
Results from one-step virus growth cycle experiments, PFU/ml (poliovirus 1 [1]): < 1×10^6 PFU/ml
Results from one-step virus growth cycle experiments, % of inhibition (poliovirus 1 [1]): > 99.92%
LD50 [2]: 734 mg/kg
ED50 [3]: 43.3 mg/kg
antiviral activity on experimental Coxsackie infections (in words) [3]: marked antiviral activity
retardation of the course of the infection [3]: 2 to 3 days
LD50 ([4]; ip, intraperitoneal): 550 mg/kg
LD50 ([4]; sc, subcutaneous): > 1000 mg/kg
selectivity ratio ([4]; LD50 /ED50, read-out: selectivity index (LD50 /ED50)): ≥ 23

Oc1ccc(NC(=S)Nc2ccccc2)cc1 [Example 24, N-phenyl-N'-4-hydroxyphenylthiourea]
reduction of the number of ailing animals compared with the placebo group (FMD virus): reduces the number of ailing animals two to three and a half times
Results from the one-step virus growth cycle experiments, % of inhibition (FMD virus type C): 99.65%
Results from the one-step virus growth cycle experiments, PFU/ml (FMD virus type C): 2.5×10^4 PFU/ml

Oc1cccc(NC(=S)Nc2ccccc2)c1 [Example 22, N-phenyl-N'-3-hydroxyphenylthiourea]
LD50 [5]: 1000 mg/kg
Results from the one-step virus growth cycle experiments, % of inhibition (echovirus 19): above 99%
animals in which development of FMD encephalitis is prevented (FMD): 33.3%
ED50 [3]: 86.6 mg/kg
antiviral activity on experimental Coxsackie infections (in words) [3]: marked antiviral activity
retardation of the course of the infection [3]: 2 to 3 days
Results from the one-step virus growth cycle experiments, % of inhibition (FMD virus type C): 97.92%
Results from the one-step virus growth cycle experiments, PFU/ml (FMD virus type C): 1.5×10^5 PFU/ml

Oc1cccc(NC(=S)Nc2ccccc2)c1 [Example 19]
Results from the one-step virus growth cycle experiments, PFU/ml (echovirus 19): 2×10^6 PFU/ml
Results from the one-step virus growth cycle experiments, % of inhibition (echovirus 19): 99.92%

S=C(Nc1ccccc1)Nc1cccc2cccnc12 [Example 2]
Results from one-step virus growth cycle experiments, PFU/ml (poliovirus 1 [1]): 5.2×10^8 PFU/ml
Results from one-step virus growth cycle experiments, % of inhibition (poliovirus 1 [1]): 48.00%

S=C(Nc1ccccc1)Nc1ccc(Cl)cc1NC(=S)Nc1ccccc1 [Example 11]
Results from one-step virus growth cycle experiments, PFU/ml (poliovirus 1 [1]): 4.3×10^8 PFU/ml
Results from one-step virus growth cycle experiments, % of inhibition (poliovirus 1 [1]): 57.00%

O=C(O)CCCNC(=S)Nc1ccccc1 [Example 8, γ-phenylthioureidobutyric acid]
Results from the one-step virus growth cycle experiments, PFU/ml (echovirus 19): 5× 10^6 PFU/ml
Results from the one-step virus growth cycle experiments, % of inhibition (echovirus 19; listed as 21): 99.81%
Results from the one-step virus growth cycle experiments, % of inhibition (echovirus 19; listed as μ-phenylthioureidobutyric acid): above 99%
Results from the one-step virus growth cycle experiments, PFU/ml (coxsackievirus B1): ≤ 1×10^6 PFU/ml
Results from one-step virus growth cycle experiments, PFU/ml (poliovirus 1 [1]): 1.5×10^7 PFU/ml

O=C(O)c1ccccc1NC(=S)Nc1ccccc1 [Example 17]
Results from the one-step virus growth cycle experiments, PFU/ml (echovirus 19): 5×10^6 PFU/ml
Results from the one-step virus growth cycle experiments, % of inhibition (echovirus 19): 99.81%

CC(=O)c1ccc(NC(=S)Nc2ccccc2)cc1 [N-phenyl-N'-acetylphenylthiourea]
Results from one-step virus growth cycle experiments, % of inhibition (poliovirus 1 [1]): 95-99%

O=[N+]([O-])c1ccc(O)c(NC(=S)Nc2ccccc2)c1 [Example 7]
Results from one-step virus growth cycle experiments, PFU/ml (poliovirus 1 [1]): 3.5×10^8 PFU/ml
Results from one-step virus growth cycle experiments, % of inhibition (poliovirus 1 [1]): 70.83%

Oc1cccc(NC(=S)Nc2ccccc2)c1 [Example 5]
Results from one-step virus growth cycle experiments, PFU/ml (poliovirus 1 [1]): 7×10^6 PFU/ml
Results from one-step virus growth cycle experiments, % of inhibition (poliovirus 1 [1]): 99.42%
Results from the gradient plaque-inhibition test (poliovirus 1 [6]): + +

O=[N+]([O-])c1ccc(O)c(NC(=S)Nc2ccccc2)c1 [Example 20, N-phenyl-N'-2-hydroxy-5-nitrophenylthiourea]
Results from the one-step virus growth cycle experiments, PFU/ml (echovirus 19): 5.9×10^7 PFU/ml
Results from the one-step virus growth cycle experiments, % of inhibition (echovirus 19): 97.73%

Cc1cccc(NC(=S)Nc2ccccc2)c1 [Example 9]
Results from one-step virus growth cycle experiments, PFU/ml (poliovirus 1 [1]): 1.4×10^7 PFU/ml
Results from one-step virus growth cycle experiments, % of inhibition (poliovirus 1 [1]): 98.79%

O=C(O)c1ccc(NC(=S)Nc2ccccc2)cc1O [Example 12]
Results from the one-step virus growth cycle experiments, PFU/ml (coxsackievirus B1): ≤ 1×10^6 PFU/ml

CC(=O)c1ccc(NC(=S)Nc2ccccc2)cc1 [Example 10]
Results from one-step virus growth cycle experiments, PFU/ml (poliovirus 1 [1]): 4.6×10^7 PFU/ml
Results from one-step virus growth cycle experiments, % of inhibition (poliovirus 1 [1]): 96.17%

Cc1cccc(NC(=S)Nc2ccccc2)c1 [N-phenyl-N'-3-tolylthiourea]
Results from one-step virus growth cycle experiments, % of inhibition (poliovirus 1 [1]): 95-99%

Oc1ccc(NC(=S)Nc2ccccc2)cc1 [Example 6]
Results from one-step virus growth cycle experiments, PFU/ml (poliovirus 1 [1]): 3.7×10^8 PFU/ml
Results from one-step virus growth cycle experiments, % of inhibition (poliovirus 1 [1]): 69.17%

O=C(O)c1ccccc1NC(=S)Nc1ccccc1 [Example 3]
Results from one-step virus growth cycle experiments, PFU/ml (poliovirus 1 [1]): 5.9×10^7 PFU/ml
Results from one-step virus growth cycle experiments, % of inhibition (poliovirus 1 [1]): 95.09%

O=C(O)c1ccc(NC(=S)Nc2ccccc2)cc1O [Example 18]
Results from the one-step virus growth cycle experiments, PFU/ml (echovirus 19): < 1×10^6 PFU/ml
Results from the one-step virus growth cycle experiments, % of inhibition (echovirus 19): > 99.96%

Oc1ccc(NC(=S)Nc2ccccc2)cc1 [Example 14]
Results from the one-step virus growth cycle experiments, PFU/ml (coxsackievirus B1): < 1×10^6 PFU/ml
